Measurements as given in ChEMBL document CHEMBL3868595, “Plazomicin is effective in a non-human primate pneumonic plague model” (Bioorg Med Chem, 2016).

Key:
Yersinia pestis [1] = test: Antibacterial activity against Yersinia pestis Colorado 92 infected in African green monkey B6873 model assessed as bacterial burden in lung at 12.5 mg/kg, iv administered within 6 hrs post onset of sustained fever as 30 mins infusion for 5 days (reference value: 7.7 10^8CFU/g); assay type: functional, CO92
[2] = Cmax in African green monkey blood at 25 mg/kg administered as iv infusion twice daily for 7 consecutive days measured on day 1 by LC-MS/MS analysis; assay type: ADME, organism-based; design: dose 25 mg/kg, route intravenous; details: chlorocebus aethiops
[3] = Elimination half life in African green monkey blood at 35 mg/kg administered as iv infusion twice daily for 7 consecutive days measured on day 7 by LC-MS/MS analysis; assay type: ADME, organism-based; details: chlorocebus aethiops, read-out: beta t1/2 (converted)
[4] = Volume of distribution at steady state in African green monkey blood at 25 mg/kg administered as iv infusion twice daily for 7 consecutive days measured on day 7 by LC-MS/MS analysis; assay type: ADME, organism-based; details: chlorocebus aethiops, read-out: Vdss
[5] = Volume of distribution at steady state in African green monkey blood at 35 mg/kg administered as iv infusion twice daily for 7 consecutive days measured on day 7 by LC-MS/MS analysis; assay type: ADME, organism-based; details: chlorocebus aethiops, read-out: Vdss
Yersinia pestis [6] = test: Antibacterial activity against Yersinia pestis Colorado 92 infected in African green monkey C2083 model assessed as bacterial burden in liver at 12.5 mg/kg, iv administered within 6 hrs post onset of sustained fever as 30 mins infusion for 5 days (reference value: 5.2 10^8CFU/g); assay type: functional, CO92
Yersinia pestis [7] = test: Antibacterial activity against Yersinia pestis Colorado 92 infected in African green monkey B6469 model assessed as bacterial burden in kidney at 25 mg/kg, iv administered within 6 hrs post onset of sustained fever as 30 mins infusion for 5 days (reference value: 7.1 10^7CFU/g); assay type: functional, organism-based; details: CO92
Yersinia pestis [8] = test: Antibacterial activity against Yersinia pestis Colorado 92 infected in African green monkey 8047 model assessed as bacterial burden in kidney at 6.25 mg/kg, iv administered within 6 hrs post onset of sustained fever as 30 mins infusion for 10 days (reference value: 7.1 10^7CFU/g); assay type: functional, CO92
Yersinia pestis [9] = test: (§1) Antibacterial activity against Yersinia pestis Colorado 92 infected in African green monkey B6106 model assessed as bacterial burden in tracheobronchial lymph nodes at 25 mg/kg, iv administered within 6 hrs post onset of sustained fever as 30 mins infusion for 5 days (reference value: 7.7 10^9CFU/g); assay type: functional, organism-based; details: CO92, Lymph node
Yersinia pestis [10] = test: as §1, with “C2149” for “B6106”, “6.25” for “25”; assay type: functional, CO92, Lymph node
Yersinia pestis [11] = test: Antibacterial activity against Yersinia pestis Colorado 92 infected in African green monkey B6672 model assessed as bacterial burden in heart at 12.5 mg/kg, iv administered within 6 hrs post onset of sustained fever as 30 mins infusion for 5 days (reference value: 2.6 10^7CFU/g); assay type: functional, CO92
Yersinia pestis [12] = test: Antibacterial activity against Yersinia pestis Colorado 92 infected in African green monkey C2149 model assessed as bacterial burden in heart at 6.25 mg/kg, iv administered within 6 hrs post onset of sustained fever as 30 mins infusion for 5 days (reference value: 2.6 10^7CFU/g); assay type: functional, CO92
Yersinia pestis [13] = test: Antibacterial activity against Yersinia pestis Colorado 92 infected in African green monkey B6861 model assessed as bacterial burden in brain at 6.25 mg/kg, iv administered within 6 hrs post onset of sustained fever as 30 mins infusion for 5 days (reference value: 1.9 10^6CFU/g); assay type: functional, CO92
Yersinia pestis [14] = test: Antibacterial activity against Yersinia pestis Colorado 92 infected in African green monkey B6889 model assessed as bacterial burden in blood at 6.25 mg/kg, iv administered within 6 hrs post onset of sustained fever as 30 mins infusion for 5 days (reference value: 1.2 10^7CFU/ml); assay type: functional, CO92
African green monkey [15] = test: Toxicity in African green monkey B6127 model infected with Yersinia pestis Colorado 92 assessed as stomach ulcer at 25 mg/kg, iv administered within 6 hrs post onset of sustained fever as 30 mins infusion for 10 days measured by hematoxylin staining based assay; assay type: organism-based; details: chlorocebus sabaeus, in vivo
African green monkey [16] = test: Toxicity in African green monkey B6408 model infected with Yersinia pestis Colorado 92 assessed as blood urea nitrogen level at 25 mg/kg, iv administered within 6 hrs post onset of sustained fever as 30 mins infusion for 10 days (reference value: 22 mg/dl); assay type: organism-based; details: chlorocebus sabaeus, in vivo
African green monkey [17] = test: Toxicity in African green monkey 8067 model infected with Yersinia pestis Colorado 92 assessed as blood urea nitrogen level at 25 mg/kg, iv administered within 6 hrs post onset of sustained fever as 30 mins infusion for 10 days (reference value: 13 mg/dl); assay type: organism-based; details: chlorocebus sabaeus, in vivo
African green monkey [18] = test: Toxicity in African green monkey B5994 model infected with Yersinia pestis Colorado 92 assessed as serum creatinine level at 25 mg/kg, iv administered within 6 hrs post onset of sustained fever as 30 mins infusion for 10 days (reference value: 0.6 mg/dl); assay type: organism-based; details: chlorocebus sabaeus, in vivo
African green monkey [19] = test: Toxicity in African green monkey B6140 model infected with Yersinia pestis Colorado 92 assessed as serum creatinine level at 25 mg/kg, iv administered within 6 hrs post onset of sustained fever as 30 mins infusion for 10 days (reference value: 0.8 mg/dl); assay type: organism-based; details: chlorocebus sabaeus, in vivo
African green monkey [20] = test: Toxicity in African green monkey 7929 model infected with Yersinia pestis Colorado 92 assessed as serum creatinine level at 25 mg/kg, iv administered within 6 hrs post onset of sustained fever as 30 mins infusion for 10 days (reference value: 1 mg/dl); assay type: organism-based; details: chlorocebus sabaeus, in vivo
African green monkey [21] = test: Toxicity in African green monkey B6428 model infected with Yersinia pestis Colorado 92 assessed as serum lactate dehydrogenase level at 25 mg/kg, iv administered within 6 hrs post onset of sustained fever as 30 mins infusion for 10 days (reference value: 238 IU/L); assay type: organism-based; details: chlorocebus sabaeus, in vivo
African green monkey [22] = test: Toxicity in African green monkey 7929 model infected with Yersinia pestis Colorado 92 assessed as serum lactate dehydrogenase level at 25 mg/kg, iv administered within 6 hrs post onset of sustained fever as 30 mins infusion for 10 days (reference value: 653 IU/L); assay type: organism-based; details: chlorocebus sabaeus, in vivo
[23] = Toxicity in African green monkey B5994 model infected with Yersinia pestis Colorado 92 assessed as total white blood cell count at 25 mg/kg, iv administered within 6 hrs post onset of sustained fever as 30 mins infusion for 10 days (reference value: 8 10^3/microL); assay type: organism-based; details: chlorocebus aethiops, in vivo
[24] = Toxicity in African green monkey B6291 model infected with Yersinia pestis Colorado 92 assessed as total white blood cell count at 25 mg/kg, iv administered within 6 hrs post onset of sustained fever as 30 mins infusion for 10 days (reference value: 12 10^3/microL); assay type: organism-based; details: chlorocebus aethiops, in vivo
[25] = Toxicity in African green monkey 7643 model infected with Yersinia pestis Colorado 92 assessed as total white blood cell count at 25 mg/kg, iv administered within 6 hrs post onset of sustained fever as 30 mins infusion for 10 days (reference value: 6.1 10^3/microL); assay type: organism-based; details: chlorocebus aethiops, in vivo
[26] = Toxicity in African green monkey 7653 model infected with Yersinia pestis Colorado 92 assessed as total white blood cell count at 25 mg/kg, iv administered within 6 hrs post onset of sustained fever as 30 mins infusion for 10 days (reference value: 7.5 10^3/microL); assay type: organism-based; details: chlorocebus aethiops, in vivo

## CN[C@@H]1[C@@H](O)[C@@H](O[C@@H]2[C@@H](O)[C@H](O[C@H]3OC(CNCCO)=CC[C@H]3N)[C@@H](N)C[C@H]2NC(=O)[C@@H](O)CCN)OC[C@]1(C)O [PLAZOMICIN]
Yersinia pestis [1]
  Activity: 16 CFU/g
[2]
  Cmax: 96 µg/mL
[3]
  half-life: 1.7 h
[4]
  Vd: 0.36 L/kg
[5]
  Vd: 0.31 L/kg
Yersinia pestis [6]
  Activity: 4.5 ×10⁹ CFU/g
Yersinia pestis [7]
  Activity: Below limit of detection
Yersinia pestis [8]
  Activity: 32 CFU/g
Yersinia pestis [9]
  Activity: Below limit of detection
Yersinia pestis [10]
  Activity: 1 ×10⁹ CFU/g
Yersinia pestis [11]
  Activity: 29 CFU/g
Yersinia pestis [12]
  Activity: 9.7 ×10⁶ CFU/g
Yersinia pestis [13]
  Activity: 12 CFU/g
Yersinia pestis [14]
  Activity: 93 CFU/ml
African green monkey [15]
  Activity: Toxic
African green monkey [16]
  Activity: 20 mg/dL
African green monkey [17]
  Activity: 21 mg/dL
African green monkey [18]
  Activity: 0.5 mg/dL
African green monkey [19]
  Activity: 0.7 mg/dL
African green monkey [20]
  Activity: 0.9 mg/dL
African green monkey [21]
  Activity: 299 IU/L
African green monkey [22]
  Activity: 496 IU/L
[23]
  Activity: 4.5 ×10³ /uL
[24]
  Activity: 5.9 ×10³ /uL
[25]
  Activity: 5.7 ×10³ /uL
[26]
  Activity: 5.8 ×10³ /uL
